Laboratory results: US6444691B1, “1,3-disubstituted ureas as ACAT inhibitors, and method of preparing thereof” (Solvakofarma, a.s., priority 1997, dated 2002)

How the values were obtained:
[1] = test system: rat liver ACAT (acylCoa:cholesterol acyltransferase); assay: In vitro inhibition of ACAT activity, rat liver microsomal fraction; assay type: biochemical; settings: rat liver microsomes, concentration 2 μM, versus enzyme activity in 1% dimethylsulfoxide
Experimental: (§1) The biological activity of the substances was evaluated based on the in vitro inhibition of acylCoa:cholesterol acyltransferase (ACAT) activity. The enzyme was obtained from the microsomal fraction of rat liver cells and rabbit intestinal mucosa of animals fed with cholesterol. The substrates for the enzyme reaction included exogenous oleoyl co-enzyme A and endogenous cholesterol. ^14C-oleoyl co-enzyme A conversion to ^14C-cholesteryl oleate was monitored. From the mixture of extracted lipids, cholesteryl oleate was separated using thin-layer chromatography, and was quantified radiometrically. ACAT specific activity was expressed as the amount of cholesteryl oleate formed per minute per mg microsomal protein.
(§2) Efficiency was calculated as compared to enzyme activity measured in the presence of 1% dimethylsulfoxide used as the solvent to prepare solutions of the substances tested.

[2] = test system: rabbit intestinal mucosa ACAT (acylCoa:cholesterol acyltransferase); assay: In vitro inhibition of ACAT activity, rabbit intestinal mucosa microsomal fraction; assay type: biochemical; settings: rabbit intestinal mucosa microsomes, concentration 2 μM, versus enzyme activity in 1% dimethylsulfoxide
Experimental: as §1, §2

Efficiency (%) liver (ACAT inhibition) [1] [%] | Efficiency (%) mucosa (ACAT inhibition) [2] [%] | Compound
19 | 31 | 1-(2,4-Dimethylphenyl)-3-((4′-nitrophenylthio)-phenyl)-urea [Example 39]
37 | 55 | O=C(Nc1ccc(Oc2ccc([N+](=O)[O-])cc2)cc1)Nc1ccc(F)cc1F [Example 2]
49 | 58 | O=C(Nc1ccc(Oc2ccc([N+](=O)[O-])cc2)cc1)Nc1cc(F)ccc1F [Example 3, 1-(2,5-Difluorophenyl)-3-((4′-nitrophenoxy)-phenyl)-urea]
0 | 42 | O=C(Nc1ccc(Oc2ccc([N+](=O)[O-])cc2)cc1)Nc1c(F)cccc1F [Example 4, 1-(2,6-Difluorophenyl)-3-((4′-nitrophenoxy)-phenyl)-urea]
0 | 0 | O=C(Nc1ccc(Oc2ccc([N+](=O)[O-])cc2)cc1)Nc1ccccc1Cl [Example 5, 1-(2-Chlorophenyl)-3-((4′-nitrophenoxy)-phenyl)-urea]
20 | 25 | O=C(Nc1ccc(Oc2ccc([N+](=O)[O-])cc2)cc1)Nc1c(Cl)cccc1Cl [Example 7, 1-(2,6-Dichlorophenyl)-3-((4′-nitrophenoxy)-phenyl)-urea]
0 | 0 | O=C(Nc1ccc(Oc2ccc([N+](=O)[O-])cc2)cc1)Nc1cc(Cl)cc(Cl)c1 [Example 8, 1-(3,5-Dichlorophenyl)-3-((4′-nitrophenoxy)-phenyl)-urea]
0 | 0 | Cc1ccccc1NC(=O)Nc1ccc(Oc2ccc([N+](=O)[O-])cc2)cc1 [Example 9]
0 | 0 | Cc1ccc(NC(=O)Nc2ccc(Oc3ccc([N+](=O)[O-])cc3)cc2)c(C)c1 [Example 11, 1-(2,4-Dimethylphenyl)-3-((4′-nitrophenoxy)-phenyl)-urea]

Second part, the compound before the results:

Compound | Efficiency (%) liver (ACAT inhibition) [1] [%] | Efficiency (%) mucosa (ACAT inhibition) [2] [%]
1-(2,6-Dimethylphenyl)-3-((4′-nitrophenylthio)-phenyl)-urea [Example 40] | 23 | 34
1-(3-Trifluoromethylphenyl)-3-((4′-nitrophenylthio)-phenyl)-urea [Example 44] | 34 | 45
O=C(Nc1ccc(Oc2ccc([N+](=O)[O-])cc2)cc1)Nc1ccccc1F [Example 1, 1-(2-Fluorophenyl)-3-((4′-nitrophenoxy)-phenyl)-urea] | 15 | 32
O=C(Nc1ccc(Oc2ccc([N+](=O)[O-])cc2)cc1)Nc1cccc(Cl)c1Cl [Example 6, 1-(2,3-Dichlorohenyl)-3-((4′-nitrophenoxy)-phenyl)-urea] | 58 | 51
Cc1ccc(NC(=O)Nc2ccc(Oc3ccc([N+](=O)[O-])cc3)cc2)cc1 [Example 10, 1-(4-Methylphenyl)-3-((4′-nitrophenoxy)-phenyl)-urea] | 0 | 0
Cc1cccc(C)c1NC(=O)Nc1ccc(Oc2ccc([N+](=O)[O-])cc2)cc1 [Example 12, 1-(2,6-Dimethylphenyl)-3-((4′-nitrophenoxy)-phenyl)-urea] | 41 | 65
Cc1cc(C)cc(NC(=O)Nc2ccc(Oc3ccc([N+](=O)[O-])cc3)cc2)c1 [Example 13, 1-(3,5-Dimethylphenyl)-3-((4′-nitrophenoxy)-phenyl)-urea] | 0 | 0
